Reference: PubChem BioAssay (NCI)
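Exposure lasted 48 hours, with cells grown in 96-well plates and compounds tested at five concentrations. TGI denotes the concentration required for complete inhibition of growth.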

Assays:
Test in all cases: NCI-60 cell line screen, 48 h
SF-268 CNS = system: SF-268 CNS
SF-295 CNS = system: SF-295 CNS
CAKI-1 renal = system: CAKI-1 renal
HCT-116 colon = system: HCT-116 colon
EKVX NSCLC = system: EKVX NSCLC
UACC-62 melanoma = system: UACC-62 melanoma
SN12C renal = system: SN12C renal
HCC-2998 colon = system: HCC-2998 colon
KM20L2 colon = system: KM20L2 colon
IGROV1 ovarian = system: IGROV1 ovarian
786-0 renal = system: 786-0 renal
SK-OV-3 ovarian = system: SK-OV-3 ovarian
M14 melanoma = system: M14 melanoma
NCI-H522 lung = system: NCI-H522 lung
MALME-3M melanoma = system: MALME-3M melanoma
CCRF-CEM leukemia = system: CCRF-CEM leukemia
RXF-631 renal = system: RXF-631 renal
TK-10 renal = system: TK-10 renal
HOP-62 NSCLC = system: HOP-62 NSCLC
SR leukemia = system: SR leukemia
OVCAR-3 ovarian = system: OVCAR-3 ovarian
LOX IMVI melanoma = system: LOX IMVI melanoma
SNB-19 CNS = system: SNB-19 CNS
SF-539 CNS = system: SF-539 CNS
NCI-H23 lung = system: NCI-H23 lung
DMS 114 small cell lung = system: DMS 114 small cell lung
MOLT-4 leukemia = system: MOLT-4 leukemia
DMS 273 small cell lung = system: DMS 273 small cell lung
A549 NSCLC = system: A549 NSCLC
HL-60(TB) leukemia = system: HL-60(TB) leukemia
SW-620 colon = system: SW-620 colon
SK-MEL-5 melanoma = system: SK-MEL-5 melanoma
UACC-257 melanoma = system: UACC-257 melanoma
HCT-15 colon = system: HCT-15 colon
HOP-92 NSCLC = system: HOP-92 NSCLC
SNB-75 CNS = system: SNB-75 CNS
ACHN renal = system: ACHN renal
M19-MEL melanoma = system: M19-MEL melanoma
HOP-18 NSCLC = system: HOP-18 NSCLC
NCI-H460 lung = system: NCI-H460 lung
HT29 colon = system: HT29 colon
SK-MEL-28 melanoma = system: SK-MEL-28 melanoma
OVCAR-8 ovarian = system: OVCAR-8 ovarian
COLO 205 colon = system: COLO 205 colon
KM12 colon = system: KM12 colon
LXFL 529 NSCLC = system: LXFL 529 NSCLC
UO-31 renal = system: UO-31 renal
OVCAR-4 ovarian = system: OVCAR-4 ovarian
RXF 393 renal = system: RXF 393 renal
K-562 leukemia = system: K-562 leukemia
SNB-78 CNS = system: SNB-78 CNS
RPMI-8226 leukemia = system: RPMI-8226 leukemia
DLD-1 colon = system: DLD-1 colon
NCI-H226 lung = system: NCI-H226 lung
U251 CNS = system: U251 CNS
SK-MEL-2 melanoma = system: SK-MEL-2 melanoma
OVCAR-5 ovarian = system: OVCAR-5 ovarian
A498 renal = system: A498 renal

## O=C(Nc1nc(=S)[nH][nH]1)C(=O)C1C(=O)Nc2ccccc2S1=O (stereo not given)
SF-268 CNS
  TGI: > 100 µM
SF-295 CNS
  TGI: > 100 µM
CAKI-1 renal
  TGI: > 100 µM
HCT-116 colon
  TGI: > 100 µM
EKVX NSCLC
  TGI: > 100 µM
UACC-62 melanoma
  TGI: > 100 µM
SN12C renal
  TGI: > 100 µM
HCC-2998 colon
  TGI: > 100 µM
KM20L2 colon
  TGI: > 100 µM
IGROV1 ovarian
  TGI: > 100 µM
786-0 renal
  TGI: > 100 µM
SK-OV-3 ovarian
  TGI: > 100 µM
M14 melanoma
  TGI: > 100 µM
NCI-H522 lung
  TGI: > 100 µM
MALME-3M melanoma
  TGI: > 100 µM
CCRF-CEM leukemia
  TGI: > 100 µM
RXF-631 renal
  TGI: > 100 µM
TK-10 renal
  TGI: > 100 µM
HOP-62 NSCLC
  TGI: > 100 µM
SR leukemia
  TGI: > 100 µM
OVCAR-3 ovarian
  TGI: > 100 µM
LOX IMVI melanoma
  TGI: > 100 µM
SNB-19 CNS
  TGI: > 100 µM
SF-539 CNS
  TGI: > 100 µM
NCI-H23 lung
  TGI: > 100 µM
DMS 114 small cell lung
  TGI: > 100 µM
MOLT-4 leukemia
  TGI: > 100 µM
DMS 273 small cell lung
  TGI: > 100 µM
A549 NSCLC
  TGI: > 100 µM
HL-60(TB) leukemia
  TGI: > 100 µM
SW-620 colon
  TGI: > 100 µM
SK-MEL-5 melanoma
  TGI: > 100 µM
UACC-257 melanoma
  TGI: > 100 µM
HCT-15 colon
  TGI: > 100 µM
HOP-92 NSCLC
  TGI: > 100 µM
SNB-75 CNS
  TGI: > 100 µM
ACHN renal
  TGI: > 100 µM
M19-MEL melanoma
  TGI: > 100 µM
HOP-18 NSCLC
  TGI: > 100 µM
NCI-H460 lung
  TGI: > 100 µM
HT29 colon
  TGI: > 100 µM
SK-MEL-28 melanoma
  TGI: > 100 µM
OVCAR-8 ovarian
  TGI: > 100 µM
COLO 205 colon
  TGI: > 100 µM
KM12 colon
  TGI: > 100 µM
LXFL 529 NSCLC
  TGI: > 100 µM
UO-31 renal
  TGI: > 100 µM
OVCAR-4 ovarian
  TGI: > 100 µM

## COc1ccc(SS(=O)(=O)c2ccc(OC)cc2)cc1
SF-268 CNS
  TGI: 32.9 µM
SF-295 CNS
  TGI: 39.3 µM
CAKI-1 renal
  TGI: 43.3 µM
HCT-116 colon
  TGI: 30.3 µM
EKVX NSCLC
  TGI: 71.6 µM
UACC-62 melanoma
  TGI: 38.5 µM
SN12C renal
  TGI: 36.7 µM
RXF 393 renal
  TGI: 32.3 µM
HCC-2998 colon
  TGI: 29.8 µM
KM20L2 colon
  TGI: 38 µM
IGROV1 ovarian
  TGI: 24.4 µM
786-0 renal
  TGI: 32.7 µM
K-562 leukemia
  TGI: 47 µM
SK-OV-3 ovarian
  TGI: 69.4 µM
M14 melanoma
  TGI: 41.6 µM
NCI-H522 lung
  TGI: 29.2 µM
MALME-3M melanoma
  TGI: 80.4 µM
CCRF-CEM leukemia
  TGI: 10.2 µM
RXF-631 renal
  TGI: > 100 µM
TK-10 renal
  TGI: 50.2 µM
HOP-62 NSCLC
  TGI: 50.9 µM
SR leukemia
  TGI: 61.4 µM
OVCAR-3 ovarian
  TGI: 33.8 µM
LOX IMVI melanoma
  TGI: 31.8 µM
SNB-19 CNS
  TGI: 65 µM
SF-539 CNS
  TGI: 34 µM
NCI-H23 lung
  TGI: 49.1 µM
DMS 114 small cell lung
  TGI: 30.6 µM
SNB-78 CNS
  TGI: > 100 µM
RPMI-8226 leukemia
  TGI: 75.4 µM
MOLT-4 leukemia
  TGI: 47.8 µM
A549 NSCLC
  TGI: 69.2 µM
HL-60(TB) leukemia
  TGI: 7.81 µM
DLD-1 colon
  TGI: 52.3 µM
SW-620 colon
  TGI: 18.1 µM
NCI-H226 lung
  TGI: 50.1 µM
SK-MEL-5 melanoma
  TGI: 33 µM
UACC-257 melanoma
  TGI: 49.4 µM
HCT-15 colon
  TGI: > 100 µM
HOP-92 NSCLC
  TGI: 60.4 µM
SNB-75 CNS
  TGI: 45.5 µM
U251 CNS
  TGI: 27.6 µM
ACHN renal
  TGI: 33.1 µM
SK-MEL-2 melanoma
  TGI: 87.5 µM
M19-MEL melanoma
  TGI: 46.4 µM
HOP-18 NSCLC
  TGI: 48.3 µM
NCI-H460 lung
  TGI: 83.9 µM
HT29 colon
  TGI: 64.1 µM
SK-MEL-28 melanoma
  TGI: 40.1 µM
OVCAR-5 ovarian
  TGI: 76.4 µM
OVCAR-8 ovarian
  TGI: 31.9 µM
COLO 205 colon
  TGI: 33.2 µM
KM12 colon
  TGI: 30.7 µM
LXFL 529 NSCLC
  TGI: 34.4 µM
UO-31 renal
  TGI: 27.2 µM
A498 renal
  TGI: 37 µM

## CC(C)[C@@H](C)CC[C@@H](C)C1CC=C2[C@@H]3CCC4C[C@@H](O[Si](C)(C)C(C)(C)C)CC[C@]4(C)C3CC[C@@]21C (stereo not given in full)
SF-268 CNS
  TGI: > 100 µM
CAKI-1 renal
  TGI: > 100 µM
HCT-116 colon
  TGI: > 100 µM
EKVX NSCLC
  TGI: > 100 µM
UACC-62 melanoma
  TGI: > 100 µM
SN12C renal
  TGI: > 100 µM
RXF 393 renal
  TGI: > 100 µM
HCC-2998 colon
  TGI: > 100 µM
KM20L2 colon
  TGI: > 100 µM
IGROV1 ovarian
  TGI: > 100 µM
786-0 renal
  TGI: > 100 µM
K-562 leukemia
  TGI: > 100 µM
SK-OV-3 ovarian
  TGI: > 100 µM
M14 melanoma
  TGI: > 100 µM
NCI-H522 lung
  TGI: > 100 µM
MALME-3M melanoma
  TGI: > 100 µM
CCRF-CEM leukemia
  TGI: > 100 µM
RXF-631 renal
  TGI: > 100 µM
TK-10 renal
  TGI: > 100 µM
HOP-62 NSCLC
  TGI: > 100 µM
SR leukemia
  TGI: > 100 µM
OVCAR-3 ovarian
  TGI: > 100 µM
SNB-19 CNS
  TGI: > 100 µM
SF-539 CNS
  TGI: > 100 µM
DMS 114 small cell lung
  TGI: > 100 µM
SNB-78 CNS
  TGI: > 100 µM
RPMI-8226 leukemia
  TGI: > 100 µM
MOLT-4 leukemia
  TGI: > 100 µM
DMS 273 small cell lung
  TGI: > 100 µM
A549 NSCLC
  TGI: > 100 µM
HL-60(TB) leukemia
  TGI: > 100 µM
SW-620 colon
  TGI: > 100 µM
NCI-H226 lung
  TGI: > 100 µM
SK-MEL-5 melanoma
  TGI: > 100 µM
UACC-257 melanoma
  TGI: > 100 µM
HCT-15 colon
  TGI: > 100 µM
SNB-75 CNS
  TGI: > 100 µM
U251 CNS
  TGI: > 100 µM
ACHN renal
  TGI: > 100 µM
SK-MEL-2 melanoma
  TGI: > 100 µM
M19-MEL melanoma
  TGI: > 100 µM
HOP-18 NSCLC
  TGI: > 100 µM
NCI-H460 lung
  TGI: > 100 µM
SK-MEL-28 melanoma
  TGI: > 100 µM
OVCAR-8 ovarian
  TGI: > 100 µM
COLO 205 colon
  TGI: > 100 µM
KM12 colon
  TGI: > 100 µM
LXFL 529 NSCLC
  TGI: > 100 µM
UO-31 renal
  TGI: > 100 µM
A498 renal
  TGI: > 100 µM
OVCAR-4 ovarian
  TGI: > 100 µM
